15 compounds from patent US20240409585A1, “MACROCYCLIC IMMUNOMODULATORS” (priority 2021, published 2024) can be followed below.

Numbered stars: 1 amine (or outer) side, 2 acyl side, 3 side chain; on linkers, the order of the positions; unused ones are H or OH. Bridge positions count the residues as written; N and C are the ends. Square brackets hold non-standard residues; d marks the D form. Peptide text beside a SMILES is read from it. * marks the point of attachment. ξ: configuration not given here. Tyr(3-NO2) = N[C@@H](Cc1ccc(O)c([N+](=O)[O-])c1)C(=O)O; X19 = Cc1cccc(-c2ccc(C[C@H](N[*:1])C(=O)[*:2])cc2)c1; Phe(4-COOH) = N[C@@H](Cc1ccc(C(=O)O)cc1)C(=O)O; Bip = N[C@@H](Cc1ccc(-c2ccccc2)cc1)C(=O)O; Ala(2-furyl) = N[C@@H](Cc1ccco1)C(=O)O; Phe(3-Me) = Cc1cccc(C[C@H](N)C(=O)O)c1; Val(3-OH) = CC(C)(O)[C@H](N)C(=O)O; 3Pal = N[C@@H](Cc1cccnc1)C(=O)O; 4Pal = N[C@@H](Cc1ccncc1)C(=O)O; Cha = N[C@@H](CC1CCCCC1)C(=O)O; AllylGly = C=CC[C@H](N)C(=O)O; Carboxymethyl = O=C(O)C*; NMeA = CN[C@@H](C)C(=O)O; Nle = CCCC[C@H](N)C(=O)O; Orn = NCCC[C@H](N)C(=O)O; Dab = NCC[C@H](N)C(=O)O; ξC = NC(CS)C(=O)O

T1 sequence (Q15116 25-288): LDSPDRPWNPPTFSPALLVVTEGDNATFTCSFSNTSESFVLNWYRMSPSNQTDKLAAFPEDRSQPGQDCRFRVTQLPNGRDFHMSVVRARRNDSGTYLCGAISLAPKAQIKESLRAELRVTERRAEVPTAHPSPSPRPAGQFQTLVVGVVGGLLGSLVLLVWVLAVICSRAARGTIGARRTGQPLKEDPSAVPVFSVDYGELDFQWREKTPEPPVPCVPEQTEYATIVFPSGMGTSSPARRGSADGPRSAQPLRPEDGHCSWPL

The experiment addresses T1, PE-labeled human PD-L1-Ig binding to Jurkat cell line over-expressing human PD-1 (Jurkat-PD-1) (Homo sapiens, UniProt Q15116).
T1 construct: expressed in transfected cells; host or cells: Jurkat
The experiment can be described thus: Jurkat-PD-1 Cell Binding High-Content Screening Assay (CBA): Method 1. To be noted: Jurkat-hPD-1 cells, PE-labeled PD-L1-Ig 20 nM final; read-out: Jurkat HPDL1 PD1 IC50 (uM) (Method 1).
The IC50 is the point on the concentration scale where inhibition reaches its midpoint. As to `CC(C)C[C@@H]1NC(=O)[C@H](CCN)NC(=O)[C@@H](CC(C)C)NC(=O)[C@H](C)N(C)C(=O)[C@H](CCCNC(=N)N)NC(=O)[C@H](Cc2ccc(-c3ccccc3)cc2)NC(=O)[C@H](C(C)C)NC(=O)[C@H](Cc2c[nH]c3ccccc23)NC(=O)[C@H](CC(=O)O)NC(=O)[C@H](Cc2ccc(C(=O)O)cc2)NC(=O)[C@H](Cc2cnc[nH]2)NC(=O)CSC[C@@H](C(=O)N[C@@H](C)C(N)=O)NC(=O)[C@H]([C@@H](C)O)NC(=O)[C@H](C(C)C)NC1=O` [Compound 1151] ({CH2CO}-H[Phe(4-COOH)]DWV[Bip]R[NMeA][dL][Dab]LVTCA-NH2; thioether N-14), the IC50 came out at 0.04 µM.
For the compound `CC[C@H](C)[C@@H]1NC(=O)[C@H](Cc2ccc(-c3ccccc3)cc2)NC(=O)[C@H](C(C)(C)O)NC(=O)[C@H](Cc2cccc(C)c2)NC(=O)[C@H](CC(=O)O)NC(=O)[C@H](Cc2ccc(O)cc2)NC(=O)[C@H](CC(N)=O)NC(=O)CSC[C@@H](C(=O)N[C@H](C)C(N)=O)NC(=O)[C@H](CCC(=O)O)NC(=O)[C@H](C(C)(C)O)NC(=O)[C@H](CC2CCCCC2)NC(=O)[C@H](CCN)NC(=O)[C@@H](CC(C)C)NC(=O)[C@H](C)N(C)C1=O` [Compound 1700] ({CH2CO}-NYD[Phe(3-Me)][Val(3-OH)][Bip]I[NMeA][dL][Dab][Cha][Val(3-OH)]EC[dA]-NH2; thioether N-14), the IC50 was 0.18 µM.
For `CCCC[C@@H]1NC(=O)[C@H](CCCNC(=N)N)NC(=O)[C@@H](CC(C)C)NC(=O)[C@H](C)N(C)C(=O)[C@H](CCCN)NC(=O)[C@H](Cc2ccc(-c3ccccc3)cc2)NC(=O)[C@H](C(C)C)NC(=O)[C@H](Cc2c[nH]c3ccccc23)NC(=O)[C@H](CC(=O)O)NC(=O)[C@H](Cc2ccc(O)cc2)NC(=O)[C@H](CC(N)=O)NC(=O)CSC[C@@H](C(=O)N[C@@H](C)C(N)=O)NC(=O)[C@H]([C@@H](C)O)NC(=O)[C@H](C(C)C)NC1=O` [Compound 1289] ({CH2CO}-NYDWV[Bip][Orn][NMeA][dL]R[Nle]VTCA-NH2; thioether N-14) the value was 0.09 µM; for `CC(C)C[C@@H]1NC(=O)[C@H](CCN)NC(=O)[C@@H](CC(C)C)NC(=O)[C@H](C)N(C)C(=O)[C@H](CCC(=O)O)NC(=O)[C@H](Cc2ccc(-c3ccccc3)cc2)NC(=O)[C@H](C(C)C)NC(=O)[C@H](Cc2c[nH]c3ccccc23)NC(=O)[C@H](CC(=O)O)NC(=O)[C@H](Cc2ccc(O)cc2)NC(=O)[C@H](CC(N)=O)NC(=O)CSC[C@@H](C(=O)N[C@@H](C)C(N)=O)NC(=O)[C@H]([C@@H](C)O)NC(=O)[C@H](C(C)C)NC1=O` [Compound 1255] ({CH2CO}-NYDWV[Bip]E[NMeA][dL][Dab]LVTCA-NH2; thioether N-14), 0.03 µM; for `CC(C)C[C@@H]1NC(=O)[C@H](CCN)NC(=O)[C@@H](CC(C)C)NC(=O)[C@H](C)N(C)C(=O)[C@H](CCCNC(=N)N)NC(=O)[C@H](Cc2ccc(-c3ccccc3)cc2)NC(=O)[C@H](C(C)C)NC(=O)[C@H](Cc2c[nH]c3ccccc23)NC(=O)[C@H](CC(=O)O)NC(=O)[C@H](Cc2cnc[nH]2)NC(=O)[C@H](CC(N)=O)NC(=O)CSC[C@@H](C(=O)N[C@@H](C)C(N)=O)NC(=O)[C@H]([C@@H](C)O)NC(=O)[C@H](C(C)C)NC1=O` [Compound 1137] ({CH2CO}-NHDWV[Bip]R[NMeA][dL][Dab]LVTCA-NH2; thioether N-14), 0.27 µM.
`CC(C)C[C@@H]1NC(=O)[C@H](Cc2c[nH]c3ccccc23)NC(=O)[C@H](CC(=O)O)NC(=O)[C@H](Cc2ccc(O)cc2)NC(=O)[C@H](Cc2cnc[nH]2)NC(=O)CSC[C@@H](C(=O)N[C@@H](C)C(N)=O)NC(=O)[C@H](CO)NC(=O)[C@H](C(C)C)NC(=O)[C@H](CC(C)C)NC(=O)[C@H](CC(N)=O)NC(=O)[C@@H](C)NC(=O)[C@H](C)N(C)C(=O)[C@H](C(C)C)NC(=O)[C@H](Cc2ccc(-c3ccccc3)cc2)NC1=O` [Compound 1736] ({CH2CO}-HYDWL[Bip]V[NMeA][dA]NLVSCA-NH2; thioether N-14): the IC50 amounted to 0.02 µM.
In the case of `CC(C)C[C@@H]1NC(=O)[C@H](Cc2c[nH]c3ccccc23)NC(=O)[C@H](CC(=O)O)NC(=O)[C@H](Cc2ccc(C(=O)O)cc2)NC(=O)[C@H](Cc2ccc(OCC(=O)O)cc2)NC(=O)CSC[C@@H](C(=O)N[C@@H](CCN)C(N)=O)NC(=O)[C@H](CO)NC(=O)[C@H](C(C)(C)O)NC(=O)[C@H](CC2CCCCC2)NC(=O)[C@H](CCN)NC(=O)[C@@H](CC(C)C)NC(=O)[C@H](C)N(C)C(=O)[C@H](C(C)(C)O)NC(=O)[C@H](Cc2ccc(-c3ccccc3)cc2)NC1=O` [Compound 1716] ({CH2CO}-Y(Carboxymethyl)[Phe(4-COOH)]DWL[Bip][Val(3-OH)][NMeA][dL][Dab][Cha][Val(3-OH)]SC[Dab]-NH2; thioether N-14), the IC50 is 0.01 µM.
For `CC(C)C[C@@H]1NC(=O)[C@H](CCCN)NC(=O)[C@@H](CC(C)C)NC(=O)[C@H](C)N(C)C(=O)[C@H](CCCNC(=N)N)NC(=O)[C@H](Cc2ccc(-c3ccccc3)cc2)NC(=O)[C@H](C(C)C)NC(=O)[C@H](Cc2c[nH]c3ccccc23)NC(=O)[C@H](CC(=O)O)NC(=O)[C@H](Cc2cnc[nH]2)NC(=O)[C@H](Cc2ccccc2)NC(=O)CSC[C@@H](C(=O)N[C@@H](C)C(N)=O)NC(=O)[C@H]([C@@H](C)O)NC(=O)[C@H](C(C)C)NC1=O` [Compound 1129] ({CH2CO}-FHDWV[Bip]R[NMeA][dL][Orn]LVTCA-NH2; thioether N-14) the value was 0.09 µM; for `C=CC[C@@H]1NC(=O)[C@H](CC(C)C)NC(=O)[C@H](CC(N)=O)NC(=O)[C@@H](CC(C)C)NC(=O)[C@H](C)N(C)C(=O)[C@H](CC=C)NC(=O)[C@H](Cc2ccc(-c3ccccc3)cc2)NC(=O)[C@H](CC(C)C)NC(=O)[C@H](Cc2cccc(C)c2)NC(=O)[C@H](CC(=O)O)NC(=O)[C@H](Cc2ccncc2)NC(=O)[C@H](Cc2ccc(OCC(=O)O)cc2)NC(=O)CSCC(C(=O)NCC(N)=O)NC(=O)[C@H](CO)NC1=O` (stereo partly drawn) [Compound 1881] ({CH2CO}-Y(Carboxymethyl)[4Pal]D[Phe(3-Me)]L[Bip][AllylGly][NMeA][dL]NL[AllylGly]S[ξC]G-NH2; thioether N-14), 0.1 µM; for `CC(C)C[C@@H]1NC(=O)[C@H](Cc2c[nH]c3ccccc23)NC(=O)[C@H](CC(=O)O)NC(=O)[C@H](Cc2ccc(O)cc2)NC(=O)[C@H](CC(N)=O)NC(=O)CSC[C@@H](C(=O)NCC(N)=O)NC(=O)[C@H](CO)NC(=O)[C@H](C(C)C)NC(=O)[C@H](CC(C)C)NC(=O)[C@H](CC(N)=O)NC(=O)[C@H](CC(N)=O)NC(=O)[C@H](C)N(C)C(=O)[C@H](C(C)C)NC(=O)[C@H](Cc2ccc(-c3ccccc3)cc2)NC1=O` [Compound 1822] ({CH2CO}-NYDWL[Bip]V[NMeA]NNLVSCG-NH2; thioether N-14), 0.58 µM.
Consider `CC(C)C[C@@H]1NC(=O)[C@H](CCN)NC(=O)[C@@H](CC(C)C)NC(=O)[C@H](C)N(C)C(=O)[C@H](CCCNC(=N)N)NC(=O)[C@H](Cc2ccc(-c3ccccc3)cc2)NC(=O)[C@H](C(C)C)NC(=O)[C@H](Cc2c[nH]c3ccccc23)NC(=O)[C@H](CC(=O)O)NC(=O)[C@H](Cc2ccc(O)c([N+](=O)[O-])c2)NC(=O)[C@H](Cc2cccnc2)NC(=O)CSC[C@@H](C(=O)N[C@@H](C)C(N)=O)NC(=O)[C@H]([C@@H](C)O)NC(=O)[C@H](C(C)C)NC1=O` [Compound 1155] ({CH2CO}-[3Pal][Tyr(3-NO2)]DWV[Bip]R[NMeA][dL][Dab]LVTCA-NH2; thioether N-14), for which the IC50 came out at 0.02 µM.
For `CC[C@H](C)[C@@H]1NC(=O)[C@H](Cc2ccc(-c3ccccc3)cc2)NC(=O)[C@H](C(C)(C)O)NC(=O)[C@H](Cc2cccc(C)c2)NC(=O)[C@H](CC(=O)O)NC(=O)[C@H](Cc2ccc(O)cc2)NC(=O)[C@H](CC(N)=O)NC(=O)CSC[C@@H](C(=O)N[C@@H](CCN)C(N)=O)NC(=O)[C@H]([C@@H](C)O)NC(=O)[C@H](C(C)(C)O)NC(=O)[C@H](CC(C)C)NC(=O)[C@H](CCN)NC(=O)[C@@H](CC(C)C)NC(=O)[C@H](C)N(C)C1=O` [Compound 1687] ({CH2CO}-NYD[Phe(3-Me)][Val(3-OH)][Bip]I[NMeA][dL][Dab]L[Val(3-OH)]TC[Dab]-NH2; thioether N-14) the value was 0.11 µM; for `Cc1cccc(-c2ccc(C[C@@H]3NC(=O)[C@H](CC(C)C)NC(=O)[C@H](Cc4c[nH]c5ccccc45)NC(=O)[C@H](CC(=O)O)NC(=O)[C@H](Cc4ccc(O)cc4)NC(=O)[C@H](Cc4ccccc4)NC(=O)CSC[C@@H](C(=O)N[C@@H](C)C(N)=O)NC(=O)[C@H](CO)NC(=O)[C@H](C(C)C)NC(=O)[C@H](CC(C)C)NC(=O)[C@H](CC(N)=O)NC(=O)[C@@H](C)NC(=O)[C@H](C)N(C)C(=O)[C@H](C(C)C)NC3=O)cc2)c1` [Compound 1788] ({CH2CO}-FYDWL[X19]V[NMeA][dA]NLVSCA-NH2; thioether N-14), 0.11 µM; for `CC(C)C[C@@H]1NC(=O)[C@H](CCN)NC(=O)[C@@H](CC(C)C)NC(=O)[C@H](C)N(C)C(=O)[C@H](CCCNC(=N)N)NC(=O)[C@H](Cc2ccc(-c3ccccc3)cc2)NC(=O)[C@H](C(C)C)NC(=O)[C@H](Cc2c[nH]c3ccccc23)NC(=O)[C@H](CC(=O)O)NC(=O)[C@H](Cc2ccc(O)cc2)NC(=O)[C@H](CC(N)=O)NC(=O)CSC[C@@H](C(=O)N[C@@H](C)C(N)=O)NC(=O)[C@H]([C@@H](C)O)NC(=O)[C@H](C(C)C)NC1=O` [Compound 1038] ({CH2CO}-NYDWV[Bip]R[NMeA][dL][Dab]LVTCA-NH2; thioether N-14), 0.13 µM.
Consider `CC(C)C[C@@H]1NC(=O)[C@H](Cc2c[nH]c3ccccc23)NC(=O)[C@H](CC(=O)O)NC(=O)[C@H](Cc2ccco2)NC(=O)[C@H](Cc2ccccc2)NC(=O)CSC[C@@H](C(=O)N[C@@H](C)C(N)=O)NC(=O)[C@H](CO)NC(=O)[C@H](C(C)C)NC(=O)[C@H](CC(C)C)NC(=O)[C@H](CC(N)=O)NC(=O)[C@@H](C)NC(=O)[C@H](C)N(C)C(=O)[C@H](C(C)C)NC(=O)[C@H](Cc2ccc(-c3ccccc3)cc2)NC1=O` [Compound 1734] ({CH2CO}-F[Ala(2-furyl)]DWL[Bip]V[NMeA][dA]NLVSCA-NH2; thioether N-14), for which the IC50 was found to be 0.01 µM.
